# Measurements reported in US5096924A, “Anticancer antibiotic MI43-37F11 substance” (501 Azidan Hojin Biseibutsu Kagaku Kenkyu Kai, priority 1989, dated 1992).
# Experiments:
# Ehrlich carcinoma [1] = assay: Activity against Ehrlich carcinoma (general statement); assay type: in vivo; settings: general statement in words
# Experimental: (a) Experiments for therapeutic treatment of Ehrlich carcinoma-bearing mice were conducted by intraperitoneal injection of the antibiotic MI43-37F11 substance. Thus, a cell suspension of Ehrlich ascites carcinoma cells was subcutaneously inoculated at the abdominal region of ICR mice (female, 6-week old, 4 mice in each treated group) so that the number of the carcinoma cells as subcutaneously transplanted was 2×10^6 cells per mouse. After the transplantation of the carcinoma cells, the antibiotic MI43-37F11 substance was administered by intraperitoneal injection to the mice having the transplanted and firmly grown carcinoma cells, according to the following schedule of administration. […]
# On the 15th day after the transplantation of the carcinoma cells, the mass of the tumor (carcinoma) was surgically removed out of each mouse and weighed. The rate of the reduction in the weight of the tumor (carcinoma) obtained from the group of mice treated with MI43-37F11 substance was evaluated in term of the rate (%) of inhibition, with such an assumption that the weight of the tumor obtained from the control group of mice was amounting to 100. […]
# mouse IMC carcinoma = assay: Inhibition of proliferation of mouse IMC carcinoma cells; assay type: cell-based; settings: 48 h, 37° C, 2 days
# Experimental: A cell suspension containing cells of mouse Leukemia L1210, mouse Leukemia P388, mouse Leukemia EL4, mouse IMC carcinoma or human lung cancer LX-1 cells in a culture medium containing 10% calf serum at a cell density of 1 x 10^5 cells/ml was prepared, and 200 μl-portion of the cell suspension so prepared was placed in a microplate and then added with a solution of MI43-37F11 substance at varying concentrations (dissolved in a mixture of water and dimethylsulfoxide (95:5)). The cell suspension containing the test compound added was subsequently incubated at 37° C for 2 days (but 5 days for the LX-1 cells).
# After the incubation, the number of the cells of the L1210 cells, P388 cells, the EL4 cells and the IMC carcinoma cells in the treated groups was counted by means of Coulter-counter. The control group (untreated) of the cell suspension to which the test compound was not added was incubated in the same way as above and then the number of the cells was similarly counted.
# Rate (%) of inhibition of the cell proliferation of the treated group against that of the control group (untreated) was evaluated. […]
# Ehrlich carcinoma [2] = assay: Therapeutic treatment of Ehrlich carcinoma-bearing mice by oral administration; assay type: in vivo, ICR mice; settings: days 1-9, 14th day; for Weight of tumor (mg ± S.D.): control 1,084 ± 256
# Experimental: On the 15th day after the transplantation of the carcinoma cells, the mass of the tumor (carcinoma) was surgically removed out of each mouse and weighed. The rate of the reduction in the weight of the tumor (carcinoma) obtained from the group of mice treated with MI43-37F11 substance was evaluated in term of the rate (%) of inhibition, with such an assumption that the weight of the tumor obtained from the control group of mice was amounting to 100. In other words, the rate (%) of inhibition to the growth of Ehrlich carcinoma was calculated according to the following equation [formula] where C means the weight of the tumor in the control group of mice (untreated) and T means the weight of the tumor of the treated group of mice.
# (b) Another experiments for therapeutic treatment of Ehrlich carcinoma-bearing mice were conducted by oral administration of MI43-37F11 substance. Thus, the cell suspension of Ehrlich ascites carcinoma cells was subcutaneously inoculated at the abdominal region of ICR mice (female, 6-week old, 5 mice in each treated group) so that the number of the carcinoma cells as subcutaneously implanted was 2×10^6 cells per mouse. The MI43-37F11 substance was orally administered to the mice of the treated group at a dosage of 6.3 mg/kg, 12.5 mg/kg, 25 mg/kg, […] or 100 mg/kg once a day during the consecutive 9 days from the 1st day to the 9th day after the implantation of the carcinoma cells. On the 14th day after the implantation of the carcinoma cells, the mass of the tumor (carcinoma) was surgically removed out of each mouse and weighed. The weight of the tumor obtained from the treated group of mice was compared with the weight of the tumor obtained from the control group of mice (untreated), by calculating the rate (%) of inhibition according to the same equation as above.
# peritoneal macrophages = assay: Activation of peritoneal macrophages (production of O2-); assay type: in vivo, CDF1 mice; settings: for Rate (%) of increase in production of O2^-: one day before harvest, control 100
# Experimental: (3) Experiments for estimation of the activity of MI43-37F11 substance to activate peritoneal macrophages were conducted by the following procedure. Thus, one day before the harvest of the peritoneal macrophages, the antibiotic MI43-37F11 substance was intraperitoneally administered to CDF1 mice (8-week old, female, 3 mice in each group) at a dosage of 50 mg/kg, 12.5 mg/kg or 3.125 mg/kg. One day after the administration, the macrophages were harvested from the peritoneal cavity of the treated mice and placed into a culture medium present in a plastic dish (Falcone, No. 3002, […], a product of Decton Dikinson & Company) at the cell concentration of 1×10^6 cells/m(, followed by incubation of the macrophages. The incubated medium containing the macrophages was then added with 100 ng/ml of phorbol myristate acetate to elicite the macrophages for their production of O2 -. The amount of O2 - was determined by reductive reaction with cytochrome C. The control group of mice (untreated) received only intraperitoneal injection of physiological saline in place of the administration of MI43-37F11 substance before the harvest of the peritoneal macrophages was done. Assumed that the amount of O2 - as produced and liberated by the peritoneal macrophages which were harvested from the mice of the control group was amounting to 100, the rate of increase in the amount of O2 - as produced by the peritoneal macrophages of the mice of the treated group was evaluated. In other words, the rate (%) of increase in the production of O2 - by the peritoneal macrophages of the mice of the treated group was calculated according to the following equation; [formula] where T means the amount of O2^- produced by the peritoneal macrophages of the mice of the treated group and C means the amount of O2^- produced by the peritoneal macrophages of the control group (untreated).
smiles,measurement,setting,value
COc1cc(O)c2c(=O)oc(CO)cc2c1 [MI43-37F11 substance],activity against Ehrlich carcinoma,Ehrlich carcinoma [1],high activity
same,IC50,mouse IMC carcinoma,72 µg/mL
same,Rate (%) of Inhibition,Ehrlich carcinoma [2]; 6.3 mg/kg/day oral,45%
same,Weight of tumor (mg ± S.D.),"Ehrlich carcinoma [2]; 6.3 mg/kg/day oral, *P < 0.05",586 ± 282 mg
same,Rate (%) of Inhibition,Ehrlich carcinoma [2]; 12.5 mg/kg/day oral,63%
same,Weight of tumor (mg ± S.D.),"Ehrlich carcinoma [2]; 12.5 mg/kg/day oral, **P < 0.01",391 ± 266 mg
same,Rate (%) of Inhibition,Ehrlich carcinoma [2]; 25.0 mg/kg/day oral,74%
same,Weight of tumor (mg ± S.D.),"Ehrlich carcinoma [2]; 25.0 mg/kg/day oral, ***P < 0.001",280 ± 152 mg
same,Rate (%) of Inhibition,Ehrlich carcinoma [2]; 50.0 mg/kg/day oral,55%
same,Weight of tumor (mg ± S.D.),"Ehrlich carcinoma [2]; 50.0 mg/kg/day oral, **P < 0.01",485 ± 123 mg
same,Rate (%) of Inhibition,Ehrlich carcinoma [2]; 100.0 mg/kg/day oral,47%
same,Weight of tumor (mg ± S.D.),"Ehrlich carcinoma [2]; 100.0 mg/kg/day oral, **P < 0.01",566 ± 421 mg
same,Rate (%) of increase in production of O2^-,peritoneal macrophages; 3.125 mg/kg i.p.,105%
same,Rate (%) of increase in production of O2^-,peritoneal macrophages; 12.5 mg/kg i.p.,127%
same,Rate (%) of increase in production of O2^-,peritoneal macrophages; 50 mg/kg i.p.,255%
same,increased production of O2- by peritoneal macrophages,peritoneal macrophages; summary in words,effective
